Measurements from ChEMBL document CHEMBL5625250, “Discovery of novel flavonoid-based CDK9 degraders for prostate cancer treatment via a PROTAC strategy” (Eur J Med Chem, 2023).
≈ marks a conversion by molar mass, not a printed value. Blank lines part the entries; values can stand above or below the compound they belong to. Calls of active or inactive are those of the source. The rule behind the calls is not given here.

Tests used:
[1] = Solubility of the compound in water at pH 7.4 by shake flask method; assay type: physicochemical
[2] = Solubility of the compound in water at pH 6.0 by shake flask method; assay type: physicochemical
[3] = molecular target: T1, Cyclin-dependent kinase 9 (Homo sapiens, UniProt P50750); assay: Inhibition of CDK9 (unknown origin) at 20 nM in presence of ATP by ADP-Glo kinase assay relative to control
T1 sequence (P50750 whole entry): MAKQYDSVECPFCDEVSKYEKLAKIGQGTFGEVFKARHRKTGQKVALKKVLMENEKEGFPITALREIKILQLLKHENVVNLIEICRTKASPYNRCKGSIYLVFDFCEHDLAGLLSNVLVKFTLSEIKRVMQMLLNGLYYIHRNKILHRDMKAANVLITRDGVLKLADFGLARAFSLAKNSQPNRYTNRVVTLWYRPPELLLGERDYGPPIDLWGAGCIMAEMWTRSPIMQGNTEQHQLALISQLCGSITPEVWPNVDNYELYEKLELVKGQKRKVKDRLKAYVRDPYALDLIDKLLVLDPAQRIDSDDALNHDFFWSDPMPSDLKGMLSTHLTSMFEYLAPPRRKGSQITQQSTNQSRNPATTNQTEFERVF

CWR22R [4] = assay: Antiproliferative activity against human 22Rv1 cells assessed as reduction in cell viability incubated for 72 hrs by SRB assay; assay type: functional, cell-based; details: 22Rv1, 72 h
[5] = molecular target: T2, Protein cereblon/Cyclin-dependent kinase 9 (Homo sapiens, UniProt P50750+Q96SW2); assay: PROTAC activity at CRBN/CDK9 in human 22Rv1 cells assessed as degradation of CDK9 protein at 20 nM incubated for 12 hrs by Western blotting analysis relative to control; assay type: cell-based
Target sequence in this assay (P50750 whole entry, looked up): as the sequence (P50750 whole entry) above
Target sequence in this assay (Q96SW2 whole entry, looked up): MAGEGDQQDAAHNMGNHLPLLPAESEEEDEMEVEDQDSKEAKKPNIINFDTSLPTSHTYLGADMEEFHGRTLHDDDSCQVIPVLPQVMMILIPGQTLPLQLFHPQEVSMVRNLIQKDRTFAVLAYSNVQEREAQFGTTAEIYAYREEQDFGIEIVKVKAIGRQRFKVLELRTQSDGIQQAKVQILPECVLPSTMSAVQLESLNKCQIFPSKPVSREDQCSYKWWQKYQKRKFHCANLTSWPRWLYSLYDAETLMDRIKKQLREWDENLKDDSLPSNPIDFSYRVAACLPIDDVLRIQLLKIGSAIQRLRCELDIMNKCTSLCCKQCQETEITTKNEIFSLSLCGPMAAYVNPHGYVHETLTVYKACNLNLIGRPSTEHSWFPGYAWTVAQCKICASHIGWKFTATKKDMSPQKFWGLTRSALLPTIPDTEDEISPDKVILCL

[6] = molecular target: T2, Protein cereblon/Cyclin-dependent kinase 9; assay: PROTAC activity at CRBN/CDK9 in human 22Rv1 cells assessed as degradation of CDK9 protein at 100 nM incubated for 12 hrs by Western blotting analysis; assay type: cell-based
Target sequence in this assay (P50750 whole entry, looked up): as the sequence (P50750 whole entry) above
Target sequence in this assay (Q96SW2 whole entry, looked up): as the sequence (Q96SW2 whole entry, looked up) above

[7] = Half life in Sprague-Dawley rat at 2 mg/kg, iv by LC-MS/MS analysis; assay type: ADME, organism-based; details: in vivo
[8] = molecular target: Cyclin-dependent kinase 6 (Homo sapiens) (UniProt Q00534); assay: Induction of CDK6 protein degradation in human 22Rv1 cells at 500 nM incubated for 12 hrs by Western blotting analysis; assay type: cell-based
Chain of Cyclin-dependent kinase 6 (Homo sapiens) (Q00534 whole entry): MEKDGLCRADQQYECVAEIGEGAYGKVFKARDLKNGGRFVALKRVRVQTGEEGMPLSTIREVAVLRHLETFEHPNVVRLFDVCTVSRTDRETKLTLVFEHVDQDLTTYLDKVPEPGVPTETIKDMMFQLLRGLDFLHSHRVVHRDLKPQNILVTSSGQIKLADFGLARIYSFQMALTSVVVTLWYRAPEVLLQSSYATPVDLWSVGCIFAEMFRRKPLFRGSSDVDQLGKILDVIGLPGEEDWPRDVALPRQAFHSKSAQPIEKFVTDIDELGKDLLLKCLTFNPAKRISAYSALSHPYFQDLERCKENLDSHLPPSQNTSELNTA

CWR22R [9] = assay: In vivo degradation of ARv7 expression in human 22Rv1 cells xenografted in BALB/c mouse tumor at 20 mg/kg, iv administered for 18 days by Western blotting analysis; assay type: functional, organism-based; details: time 18.0 day
[10] = Metabolic stability in human liver microsome assessed as half life at 10 uM by LC-MS/MS analysis; assay type: ADME; details: liver microsomes
[11] = molecular target: T2, Protein cereblon/Cyclin-dependent kinase 9; assay: PROTAC activity at CRBN/CDK9 in human 22Rv1 cells assessed as degradation of CDK9 protein at 100 nM by Western blotting analysis; assay type: cell-based; details: time 2-24 hrs, TDE = time-dependent effect
Target sequence in this assay (P50750 whole entry, looked up): as the sequence (P50750 whole entry) above
Target sequence in this assay (Q96SW2 whole entry, looked up): as the sequence (Q96SW2 whole entry, looked up) above

[12] = AUC in Sprague-Dawley rat at 2 mg/kg, iv by LC-MS/MS analysis; assay type: ADME, organism-based; details: in vivo
CWR22R [13] = assay: Antitumor activity against human 22Rv1 cells xenografted in BALB/c mouse assessed as tumor growth inhibition at 20 mg/kg, iv administered for 20 days relative to control; assay type: functional; details: 22Rv1, 480 h, time 20 day, read-out: TGI
CWR22R [14] = assay: In vivo degradation of c-Myc expression in human 22Rv1 cells xenografted in BALB/c mouse tumor at 20 mg/kg, iv administered for 18 days by Western blotting analysis; assay type: functional, organism-based; details: time 18.0 day
[15] = molecular target: T2, Protein cereblon/Cyclin-dependent kinase 9; assay: PROTAC activity at CRBN/CDK9 in human 22Rv1 cells assessed as reduction in RNAPII-ser 2 phosphorylation incubated for 24 hrs by Western blotting analysis; assay type: cell-based; details: dose 0.1-1.5 µM
Target sequence in this assay (P50750 whole entry, looked up): as the sequence (P50750 whole entry) above
Target sequence in this assay (Q96SW2 whole entry, looked up): as the sequence (Q96SW2 whole entry, looked up) above

[16] = molecular target: T2, Protein cereblon/Cyclin-dependent kinase 9; assay: PROTAC activity at CRBN/CDK9 in human 22Rv1 cells assessed as reduction in cyclin T1 expression at 0.1 to 1.5 uM incubated for 24 hrs by Western blotting analysis; assay type: cell-based; details: dose 0.1-1.5 µM
Target sequence in this assay (P50750 whole entry, looked up): as the sequence (P50750 whole entry) above
Target sequence in this assay (Q96SW2 whole entry, looked up): as the sequence (Q96SW2 whole entry, looked up) above

[17] = molecular target: T2, Protein cereblon/Cyclin-dependent kinase 9; assay: PROTAC activity at CRBN/CDK9 in human 22Rv1 cells assessed as reduction in c-Myc expression incubated for 24 hrs by Western blotting analysis; assay type: cell-based; details: dose 0.1-1.5 µM
Target sequence in this assay (P50750 whole entry, looked up): as the sequence (P50750 whole entry) above
Target sequence in this assay (Q96SW2 whole entry, looked up): as the sequence (Q96SW2 whole entry, looked up) above

CWR22R [18] = assay: In vivo degradation of CDK9 protein level in human 22Rv1 cells xenografted in BALB/c mouse tumor at 20 mg/kg, iv administered for 18 days by immunohistochemistry analysis; assay type: functional, organism-based; details: time 18.0 day
[19] = molecular target: T1, Cyclin-dependent kinase 9; assay: Inhibition of CDK9 (unknown origin) in presence of ATP by ADP-Glo kinase assay
[20] = Toxicity in BALB/c mouse xenografted with human 22Rv1 cells assessed as mortality at 10 to 20 mg/kg, iv administered for 20 days; assay type: organism-based, CWR22R; details: in vivo, 480 h, dose 10-20 mg/kg, time 20 day
[21] = Toxicity in BALB/c mouse xenografted with human 22Rv1 cells assessed as change in body weight at 20 mg/kg, iv administered for 20 days relative to control; assay type: organism-based, CWR22R; details: in vivo, 480 h, time 20 day
CWR22R [22] = assay: In vivo degradation of CDK9 expression in human 22Rv1 cells xenografted in BALB/c mouse tumor at 20 mg/kg, iv administered for 18 days by Western blotting analysis; assay type: functional, organism-based; details: time 18.0 day
CWR22R [23] = assay: Antitumor activity against human 22Rv1 cells assessed as complete reduction in colony formation at 60 nM incubated for 2 weeks by crystal violet staining based assay; assay type: functional; set-up: scale not given: the % may be the effect or the level left
[24] = molecular target: T2, Protein cereblon/Cyclin-dependent kinase 9; assay: PROTAC activity at CRBN/CDK9 in human 22Rv1 cells assessed as degradation of CDK9 protein at 0.1 uM incubated for 12 hrs in presence of MG132 by Western blotting analysis; assay type: cell-based
[25] = molecular target: T2, Protein cereblon/Cyclin-dependent kinase 9; assay: PROTAC activity at CRBN/CDK9 in human 22Rv1 cells assessed as degradation of CDK9 protein incubated for 12 hrs by Western blotting analysis; assay type: cell-based
[26] = molecular target: Cyclin-dependent kinase 7 (Homo sapiens) (UniProt P50613); assay: Induction of CDK7 protein degradation in human 22Rv1 cells at 500 nM incubated for 12 hrs by Western blotting analysis; assay type: cell-based
Chain of Cyclin-dependent kinase 7 (Homo sapiens) (P50613 whole entry): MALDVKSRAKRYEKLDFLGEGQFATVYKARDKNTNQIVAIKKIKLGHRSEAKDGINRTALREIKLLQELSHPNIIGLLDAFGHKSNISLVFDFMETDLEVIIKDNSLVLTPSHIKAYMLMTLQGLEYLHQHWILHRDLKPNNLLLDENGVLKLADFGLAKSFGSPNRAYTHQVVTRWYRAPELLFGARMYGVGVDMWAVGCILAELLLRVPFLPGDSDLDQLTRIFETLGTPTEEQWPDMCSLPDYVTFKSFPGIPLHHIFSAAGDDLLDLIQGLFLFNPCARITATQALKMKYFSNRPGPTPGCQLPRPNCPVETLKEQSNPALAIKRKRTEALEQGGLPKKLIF

[27] = Apparent volume of distribution in Sprague-Dawley rat at 2 mg/kg, iv by LC-MS/MS analysis; assay type: ADME, organism-based; details: in vivo, read-out: Vz
CWR22R [28] = assay: In vivo degradation of Mcl-1 expression in human 22Rv1 cells xenografted in BALB/c mouse tumor at 20 mg/kg, iv administered for 18 days by Western blotting analysis; assay type: functional, organism-based; details: time 18.0 day
CWR22R [29] = assay: Antiproliferative activity against human 22Rv1 cells assessed as reduction in colony formation incubated for 2 weeks by crystal violet staining based assay; assay type: functional, cell-based; details: dose 7.8-62.5 nM
[30] = molecular target: T2, Protein cereblon/Cyclin-dependent kinase 9; assay: PROTAC activity at CRBN/CDK9 in human 22Rv1 cells assessed as reduction in Mcl-1 expression incubated for 24 hrs by Western blotting analysis; assay type: cell-based; details: dose 0.1-1.5 µM
[31] = molecular target: T2, Protein cereblon/Cyclin-dependent kinase 9; assay: PROTAC activity at CRBN/CDK9 in human 22Rv1 cells assessed as degradation of CDK9 protein at 0.1 uM incubated for 12 hrs in presence of thalidomide by Western blotting analysis; assay type: cell-based
CWR22R [32] = assay: Antitumor activity against human 22Rv1 cells assessed as complete reduction in colony formation incubated for 2 weeks by crystal violet staining based assay; assay type: functional, cell-based; details: dose 7.8-62.5 nM
[33] = molecular target: T2, Protein cereblon/Cyclin-dependent kinase 9; assay: PROTAC activity at CRBN/CDK9 in human 22Rv1 cells assessed as degradation of CDK9 protein at 500 nM incubated for 12 hrs by Western blotting analysis; assay type: cell-based
CWR22R [34] = assay: In vivo degradation of c-Myc protein level in human 22Rv1 cells xenografted in BALB/c mouse tumor at 20 mg/kg, iv administered for 18 days by immunohistochemistry analysis; assay type: functional, organism-based; details: time 18.0 day
[35] = molecular target: Cyclin-dependent kinase 5 (Homo sapiens) (UniProt Q00535); assay: Induction of CDK5 protein degradation in human 22Rv1 cells at 500 nM incubated for 12 hrs by Western blotting analysis; assay type: cell-based
Chain of Cyclin-dependent kinase 5 (Homo sapiens) (Q00535 whole entry, looked up): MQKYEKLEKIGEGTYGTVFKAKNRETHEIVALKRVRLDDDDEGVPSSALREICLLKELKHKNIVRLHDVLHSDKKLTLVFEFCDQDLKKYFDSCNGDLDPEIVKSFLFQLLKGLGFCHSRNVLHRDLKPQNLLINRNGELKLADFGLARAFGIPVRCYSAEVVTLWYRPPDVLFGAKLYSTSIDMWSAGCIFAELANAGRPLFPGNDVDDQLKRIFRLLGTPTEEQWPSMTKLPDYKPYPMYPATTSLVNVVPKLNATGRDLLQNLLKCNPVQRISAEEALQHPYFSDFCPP

[36] = molecular target: T2, Protein cereblon/Cyclin-dependent kinase 9; assay: PROTAC activity at CRBN/CDK9 in human 22Rv1 cells assessed as degradation of CDK9 protein at 0.1 uM incubated for 12 hrs in presence of LWT-111 by Western blotting analysis; assay type: cell-based
[37] = molecular target: Cyclin-dependent kinase 2 (Homo sapiens) (UniProt P24941); assay: Induction of CDK2 protein degradation in human 22Rv1 cells at 500 nM incubated for 12 hrs by Western blotting analysis; assay type: cell-based
CWR22R [38] = assay: Antitumor activity against human 22Rv1 cells xenografted in BALB/c mouse assessed as tumor growth inhibition at 10 mg/kg, iv administered for 20 days relative to control; assay type: functional; details: 22Rv1, 480 h, time 20 day, read-out: TGI
[39] = Toxicity in BALB/c mouse xenografted with human 22Rv1 cells assessed as change in body weight at 10 mg/kg, iv administered for 20 days relative to control; assay type: organism-based, CWR22R; details: in vivo, 480 h, time 20 day
[40] = molecular target: T2, Protein cereblon/Cyclin-dependent kinase 9; assay: PROTAC activity at CRBN/CDK9 in human 22Rv1 cells assessed as degradation of CDK9 protein at 100 nM incubated for 12 hrs by Western blotting analysis relative to control; assay type: cell-based
[41] = molecular target: Cyclin-dependent kinase 4 (Homo sapiens) (UniProt P11802); assay: Induction of CDK4 protein degradation in human 22Rv1 cells at 500 nM incubated for 12 hrs by Western blotting analysis; assay type: cell-based
Chain of Cyclin-dependent kinase 4 (Homo sapiens) (P11802 whole entry): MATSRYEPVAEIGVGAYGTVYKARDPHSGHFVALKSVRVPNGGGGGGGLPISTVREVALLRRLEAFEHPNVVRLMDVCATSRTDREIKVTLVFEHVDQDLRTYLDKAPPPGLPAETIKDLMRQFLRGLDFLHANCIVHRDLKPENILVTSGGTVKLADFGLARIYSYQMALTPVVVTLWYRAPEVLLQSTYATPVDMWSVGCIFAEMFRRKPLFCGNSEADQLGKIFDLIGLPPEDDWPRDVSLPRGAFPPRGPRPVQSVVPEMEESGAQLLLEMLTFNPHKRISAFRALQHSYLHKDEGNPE

CWR22R [42] = assay: In vivo degradation of Ki67 protein level in human 22Rv1 cells xenografted in BALB/c mouse tumor at 20 mg/kg, iv administered for 18 days by immunohistochemistry analysis; assay type: functional, organism-based; details: time 18.0 day

solubility thermodynamic [1]: < 10 µg/mL
Activity [6]: Active
solubility thermodynamic [2]: < 10 µg/mL
inhibition [3]: 34.2%
SMILES: COc1cc(O)c2c(=O)cc(-c3ccc(N4CCN(C(=O)CCCCCCCCCOc5cccc6c5C(=O)N(C5CCC(=O)NC5=O)C6=O)CC4)cc3)oc2c1C1=CCN(C)CC1 (centres undefined)
IC50 (CWR22R [4]): 120 nM

solubility thermodynamic [1]: < 10 µg/mL
solubility thermodynamic [2]: < 10 µg/mL
inhibition [3]: 69.5%
SMILES: COc1cc(O)c2c(=O)cc(-c3ccc(N4CCN(C(=O)CCCCCCCOc5cccc6c5C(=O)N(C5CCC(=O)NC5=O)C6=O)CC4)cc3)oc2c1C1=CCN(C)CC1 (centres undefined)
IC50 (CWR22R [4]): 1810 nM

The next lines start with the compound.

SMILES: COc1cc(O)c2c(=O)cc(-c3ccc(N4CCN(C(=O)CCCCCOc5cccc6c5C(=O)N(C5CCC(=O)NC5=O)C6=O)CC4)cc3)oc2c1C1=CCN(C)CC1 (centres undefined)
solubility thermodynamic [1]: < 10 µg/mL
solubility thermodynamic [2]: < 10 µg/mL
inhibition [3]: 69.9%
IC50 (CWR22R [4]): 650 nM

SMILES: COc1cc(O)c2c(=O)cc(-c3ccc(N4CCN(C(=O)C5CCN(c6ccc7c(c6)C(=O)N(C6CCC(=O)NC6=O)C7=O)CC5)CC4)cc3)oc2c1C1=CCN(C)CC1 (centres undefined)
solubility thermodynamic [1]: 21 µg/mL (≈ 25.8 µM)
solubility thermodynamic [2]: < 10 µg/mL
inhibition [3]: 90.4%
Activity [5]: > 50%
IC50 (CWR22R [4]): 20 nM

SMILES: COc1cc(O)c2c(=O)cc(-c3ccc(N4CCN(CC5CCN(c6ccc7c(c6)C(=O)N(C6CCC(=O)NC6=O)C7=O)CC5)CC4)cc3)oc2c1C1=CCN(C)CC1 (centres undefined)
half-life [7]: 11.1 h
solubility thermodynamic [1]: 53 µg/mL (≈ 66.2 µM)
Activity [8]: inactive
Activity (CWR22R [9]): Active
half-life at 10 µM [10]: 1.62 h
Activity [11]: Tde
AUC [12]: 681 ng·h/mL
inhibition in vivo at 20 mg/kg (CWR22R [13]): 75.1%
Activity (CWR22R [14]): Active
Activity [15]: Dose-Dependent Effect
Activity [16]: Active
Activity [17]: Dose-Dependent Effect
Activity (CWR22R [18]): Active
IC50 [19]: 3.3 nM
Activity [20]: Non-Toxic
Activity [21]: 15.3%
Activity (CWR22R [22]): Active
Activity (CWR22R [23]): 100%
Activity [24]: inactive
Activity [25]: Dose-Dependent Effect
DC50 [25]: 43 nM
Activity [26]: inactive
solubility thermodynamic [2]: 125 µg/mL (≈ 156 µM)
inhibition [3]: 85.6%
Vd [27]: 22.6 L/kg
Activity (CWR22R [28]): Active
Activity (CWR22R [29]): Dose-Dependent Effect
Activity [30]: Dose-Dependent Effect
Activity [31]: inactive
Activity (CWR22R [32]): Dose-Dependent Effect
Activity [33]: 100%
Activity (CWR22R [34]): Active
Activity [35]: inactive
Activity [36]: inactive
Activity [37]: inactive
inhibition in vivo at 10 mg/kg (CWR22R [38]): 65.7%
Activity [39]: 12.5%
Activity [40]: 80%
IC50 (CWR22R [4]): 60 nM
Activity [41]: inactive
Activity (CWR22R [42]): Active

SMILES: COc1cc(O)c2c(=O)cc(-c3ccc(N4CCN(C(=O)CNc5cccc6c5C(=O)N(C5CCC(=O)NC5=O)C6=O)CC4)cc3)oc2c1C1=CCN(C)CC1 (centres undefined)
solubility thermodynamic [1]: 21 µg/mL (≈ 27.6 µM)
solubility thermodynamic [2]: < 10 µg/mL
inhibition [3]: 84.1%
Activity [40]: 80%
IC50 (CWR22R [4]): 100 nM
